{"source": "patent US20080234266A1", "about": "“Squaric Acid Derivatives II” (priority 2005, published 2008)", "data": [{"biological_target": "T1, CHK1 kinase (Homo sapiens, UniProt O14757)", "T1 construct": "glutathione S-transferase (GST); made in house; host or cells: Sf21 insect cells (S. frugiperda), baculovirus", "T1 sequence (O14757 1-476)": "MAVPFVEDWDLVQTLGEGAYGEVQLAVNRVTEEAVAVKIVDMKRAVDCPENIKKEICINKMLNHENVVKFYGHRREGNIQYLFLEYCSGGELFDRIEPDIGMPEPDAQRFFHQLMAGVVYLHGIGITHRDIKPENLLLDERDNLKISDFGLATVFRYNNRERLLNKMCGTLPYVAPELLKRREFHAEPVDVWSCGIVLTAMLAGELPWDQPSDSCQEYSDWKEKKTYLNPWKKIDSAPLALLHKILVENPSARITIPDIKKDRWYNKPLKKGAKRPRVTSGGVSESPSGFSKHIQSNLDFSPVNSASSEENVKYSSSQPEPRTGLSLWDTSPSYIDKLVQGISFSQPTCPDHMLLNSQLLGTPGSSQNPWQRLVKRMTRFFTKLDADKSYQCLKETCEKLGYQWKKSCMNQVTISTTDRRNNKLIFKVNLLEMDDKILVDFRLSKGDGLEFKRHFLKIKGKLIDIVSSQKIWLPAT", "experiment": "Flashplate method (CHK1), measurement of the CHK1 kinase activity", "type": "biochemical", "settings": "class symbols; 'Affinity to receptors'", "method": "CHK1 kinase is expressed for the purposes of protein production in insect cells (Sf21; S. frugiperda) and subsequent purification by affinity chromatography as fusion protein with glutathione S-transferase in a baculovirus expression vector. The cultivation, infection and digestion of the cells as well as the purification of the fusion protein by column chromatography are carried out in accordance with manufacturer-oriented generic working instructions.\nThe kinase activity is measured using various available measurement systems. In the scintillation proximity method (Sorg et al., J. of. Biomolecular Screening, 2002, 7, 11-19), the flashplate method or the filter binding test, the radioactive phosphorylation of a protein or peptide as substrate is measured using radioactively labelled ATP (γ^32P-ATP, (γ^33P-ATP). In the case of the presence of an inhibitory compound, a reduced radioactive signal, or none at all, can be detected. Furthermore, homogeneous time-resolved fluorescence resonance energy transfer (HTR-FRET) and fluorescence polarisation (FP) technologies are useful as assay methods (Sills et al., J. of Biomolecular Screening, 2002, 191-214).\nThe test plates used are 384-well streptavidin-coated Flashplates Plus® from Perkin Elmer (Cat.No. SMP410A001PK). The assay plate is equilibrated with 75 μl of assay buffer per well 30 min before commencement of the experiment. The buffer is sucked out before commencement of the experiment, and the components of the kinase reaction described below are pipetted onto the plate.\nCHK1 kinase, a biotinylated substrate peptide (for example CHKtide: […]), is incubated with radioactively labelled ATP in the presence and absence of test substances at 30° Celsius and a total volume of 50 μl. The reaction is terminated using 25 μl of a 0.2 M EDTA solution. After incubation for 30 min at room temperature, the supernatants are filtered off with suction, and the wells are washed three times with 100 μl of 0.9% NaCl solution each time. The measurement of the bound radioactivity is carried out by means of a scintillation measuring instrument (Topcount NXT, Perkin-Elmer).\nThe full value used is the inhibitor-free kinase reaction. This should be approximately in the range 3000-4000 cpm. The pharmacological zero value used is staurosporin in a final concentration of 0.1 μM. The inhibitory values (IC50) are determined using the program RS1_MTS ( ).\nKinase reaction conditions per well:\n0.15 μg of CHKtide ([…])\n50 μl total volume (1-fold assay buffer reaction conditions)\nSolutions used: • assay buffer:\n0.1 mM Titriplex VI (EGTA\n10 mM magnesium acetate 0.1% mercaptoethanol\npH=7.5 (to be set using hydrochloric acid) Bovine serum albumin (final concentration 0.1%) is not added until just before use. • stop solution:\n0.2 M TitriplexIII (EDTA)\n• γ^33P-ATP (Perkin-Elmer) • CHK1 kinase preparations: specific activity>50 U/mg • CHKtide solution: biotinylated peptide substrate (Biotrend) stored as stock solution (concentration 0.15 mg/ml).", "units": {"IC50": "nM"}, "values": [{"compound": "CCOc1ccc(O)cc1CNc1c(Nc2ccc3[nH]cnc3c2)c(=O)c1=O", "note": "[Compound A93, 3-(1H-benzimidazol-5-ylamino)-4-(2-ethoxy-5-hydroxybenzylamino)cyclobut-3-ene-1,2-dione]", "IC50": "> 1000"}, {"compound": "NS(=O)(=O)c1ccccc1CNc1c(Nc2ccc3[nH]cnc3c2)c(=O)c1=O", "note": "[Compound A155, 3-(1H-benzimidazol-5-ylamino)-4-(2-amino-sulfonylbenzylamino)cyclobut-3-ene-1,2-dione]", "IC50": "> 1000"}, {"compound": "O=c1c(NCc2ccc3[nH]cnc3c2)c(Nc2ccc3[nH]cnc3c2)c1=O", "note": "[Compound A88, 3-(1H-benzimidazol-5-ylamino)-4-[(1H-benzimidazol-5-ylmethyl)amino]cyclobut-3-ene-1,2-dione]", "IC50": "> 1000"}, {"compound": "O=c1c(NCc2ccccc2O)c(Nc2ccc3[nH]cnc3c2)c1=O", "note": "[Compound A158, 3-(1H-benzimidazol-5-ylamino)-4-(2-hydroxy-benzylamino)cyclobut-3-ene-1,2-dione]", "IC50": "> 1000"}, {"compound": "CC(C)(C)OC(=O)N1CCC(Oc2ccccc2CNc2c(Nc3ccc4[nH]cnc4c3)c(=O)c2=O)CC1", "note": "[Compound A146, 3-(1H-benzimidazol-5-ylamino)-4-[2-(1-tert-butyloxycarbonylpiperidin-4-yloxy)benzyl-amino]cyclobut-3-ene-1,2-dione]", "IC50": "> 1000"}, {"compound": "Cc1cc2cc(Nc3c(NCc4cccc(O)c4)c(=O)c3=O)ccc2[nH]1", "note": "[Compound A39, 3-(2-methyl-1H-indol-5-ylamino)-4-(3-hydroxybenzylamino)cyclobut-3-ene-1,2-dione]", "IC50": "> 1000"}, {"compound": "CNS(=O)(=O)c1ccc(CNc2c(Nc3ccc4[nH]cnc4c3)c(=O)c2=O)cc1", "note": "[Compound A152, 3-(1H-benzimidazol-5-ylamino)-4-[4-(N-methylaminosulfonyl)benzylamino]cyclobut-3-ene-1,2-dione]", "IC50": "> 1000"}, {"compound": "3-[(R)-1-(3-methoxyphenyl)ethylamino]-4-(8-methylimidazo[1,2-a]pyridin-6-ylamino)-cyclobut-3-ene-1,2-dione [Compound A59]", "IC50": "> 1000"}, {"compound": "O=c1c(NCc2ccccc2OC2CCNCC2)c(Nc2ccc3[nH]cnc3c2)c1=O", "note": "[Compound A148, 3-(1H-benzimidazol-5-ylamino)-4-[2-(piperidin-4-yloxy)benzylamino]cyclobut-3-ene-1,2-dione]", "IC50": "> 1000"}, {"compound": "COc1ccccc1CNc1c(Nc2ccc3[nH]cnc3c2)c(=O)c1=O", "note": "[Compound A144, 3-(1H-benzimidazol-5-ylamino)-4-(2-methoxybenzylamino)cyclobut-3-ene-1,2-dione]", "IC50": "> 1000"}, {"compound": "CC[C@H](Nc1c(Nc2ccc3[nH]cnc3c2)c(=O)c1=O)c1cccc(OC)c1", "note": "[Compound A115, 3-(1H-benzimidazol-5-ylamino)-4-[(S)-1-(3-methoxyphenyl)propylamino]cyclobut-3-ene-1,2-dione]", "IC50": "> 1000"}, {"compound": "Cc1ccc(CC(O)c2cccc(CNc3c(Nc4ccc5[nH]cnc5c4)c(=O)c3=O)c2)cc1", "note": "(centres unmarked) [Compound A161, 3-(1H-benzimidazol-5-ylamino)-4-[3-(1-hydroxy-2-p-tolylethyl)benzylamino]cyclobut-3-ene-1,2-dione]", "IC50": "> 1000"}, {"compound": "O=c1c(NCc2ccc(F)c(F)c2)c(Nc2ccc3[nH]cnc3c2)c1=O", "note": "[Compound A43, 3-(1H-benzimidazol-5-ylamino)-4-(3,4-di-fluorobenzylamino)cyclobut-3-ene-1,2-dione]", "IC50": "> 1000"}, {"compound": "NS(=O)(=O)c1cccc(CNc2c(Nc3ccc4[nH]cnc4c3)c(=O)c2=O)c1", "note": "[Compound A6, 3-(1H-benzimidazol-5-ylamino)-4-(3-amino-sulfonylbenzylamino)cyclobut-3-ene-1,2-dione]", "IC50": "< 1000"}, {"compound": "O=c1c(NCc2cccc(O)c2)c(Nc2ccc3[nH]cnc3c2)c1=O", "note": "[Compound A1, 3-(1H-benzimidazol-5-ylamino)-4-(3-hydroxybenzylamino)cyclobut-3-ene-1,2-dione]", "IC50": "< 100"}, {"compound": "Cc1nc2cc(Nc3c(NCc4cccc(O)c4)c(=O)c3=O)ccc2[nH]1", "note": "[Compound A89, 3-(3-hydroxybenzylamino)-4-(2-methyl-1H-benzimidazol-5-ylamino)cyclobut-3-ene-1,2-dione]", "IC50": "> 1000"}, {"compound": "O=c1c(NCc2cccc(O)c2)c(NCc2ccc3[nH]nnc3c2)c1=O", "note": "[Compound A15, 3-(1H-benzotriazol-5-ylmethylamino)-4-(3-hydroxybenzylamino)cyclobut-3-ene-1,2-dione]", "IC50": "< 1000"}, {"compound": "CC(C)(C)NS(=O)(=O)c1cccc(CNc2c(Nc3ccc4[nH]cnc4c3)c(=O)c2=O)c1", "note": "[Compound A41, 3-(1H-benzimidazol-5-ylamino)-4-[3-(tert-butylaminosulfonyl)benzylamino]cyclobut-3-ene-1,2-dione]", "IC50": "> 1000"}, {"compound": "O=c1[nH]c2ccc(Nc3c(NCc4cccc(O)c4)c(=O)c3=O)cc2[nH]1", "note": "[Compound A30, 4-(2-oxo-2,3-dihydro-1H-benzimidazol-5-yl-amino)-3-(3-hydroxybenzylamino)cyclobut-3-ene-1,2-dione]", "IC50": "> 1000"}, {"compound": "O=c1c(NCc2cccc(O)c2)c(Nc2ccc3ncsc3c2)c1=O", "note": "[Compound A14, 3-(benzothiazol-6-ylamino)-4-(3-hydroxy-benzylamino)cyclobut-3-ene-1,2-dione]", "IC50": "< 1000"}, {"compound": "Cn1cnc2ccc(Nc3c(NCc4cccc(O)c4)c(=O)c3=O)cc21", "note": "[Compound A52, 3-(3-hydroxybenzylamino)-4-(3-methyl-3H-benzimidazol-5-ylamino)cyclobut-3-ene-1,2-dione]", "IC50": "< 1000"}, {"compound": "CCCCc1c(Nc2c(NCc3cccc(O)c3)c(=O)c2=O)ccc2[nH]cnc12", "note": "[Compound A111, 3-(4-butyl-1H-benzimidazol-5-ylamino)-4-(3-hydroxybenzylamino)cyclobut-3-ene-1,2-dione]", "IC50": "> 1000"}, {"compound": "COCCNC(=O)CC(Nc1c(Nc2ccc3[nH]cnc3c2)c(=O)c1=O)c1cccc(O)c1", "note": "(centres unmarked) [Compound A117, 3-[2-(1H-benzimidazol-5-ylamino)-3,4-dioxo-cyclobut-1-enylamino]-3-(3-hydroxyphenyl)-N-(2-methoxyethyl)propionamide]", "IC50": "> 1000"}, {"compound": "CCN(CC)c1c(Nc2c(NCc3cccc(O)c3)c(=O)c2=O)cc(C(F)(F)F)c2[nH]cnc12", "note": "[Compound A124, 3-(4-diethylamino-7-trifluoromethyl-1H-benzimidazol-5-ylamino)-4-(3-hydroxy-benzylamino)cyclobut-3-ene-1,2-dione]", "IC50": "> 1000"}, {"compound": "C[C@@H](Nc1c(Nc2ccc3[nH]cnc3c2)c(=O)c1=O)c1cccc(O)c1", "note": "[Compound A3, 3-(1H-benzimidazol-5-ylamino)-4-[(R)-1-(3-hydroxyphenyl)ethylamino]cyclobut-3-ene-1,2-dione]", "IC50": "< 100"}, {"compound": "CCOc1cccc(CNc2c(Nc3ccc4[nH]cnc4c3)c(=O)c2=O)c1", "note": "[Compound A104, 3-(1H-benzimidazol-5-ylamino)-4-(3-ethoxy-benzylamino)cyclobut-3-ene-1,2-dione]", "IC50": "> 1000"}, {"compound": "3-(3-hydroxybenzylamino)-4-(5-methyl-imidazo[1,2-a]pyridin-6-ylamino)cyclobut-3-ene-1,2-dione [Compound A56]", "IC50": "< 1000"}, {"compound": "3-[(R)-1-(3-methoxyphenyl)ethylamino]-4-(7-methylimidazo[1,2-a]pyridin-6-ylamino)-cyclobut-3-ene-1,2-dione [Compound A57]", "IC50": "> 1000"}, {"compound": "CS(=O)(=O)c1cccc(CNc2c(Nc3ccc4[nH]cnc4c3)c(=O)c2=O)c1", "note": "[Compound A131, 3-(1H-benzimidazol-5-ylamino)-4-(3-methyl-sulfonylbenzylamino)cyclobut-3-ene-1,2-dione]", "IC50": "> 1000"}]}]}
